Laboratory results taken from PMC11129975, “A first-in-human phase I study of TAS-117, an allosteric AKT inhibitor, in patients with advanced solid tumors” (Cancer Chemotherapy and Pharmacology, 2024).
Marks after values point to notes of the source that are not given here.

Legend:
[1] = Plasma and urine pharmacokinetics of TAS-117 in patients; format: in vivo, human
Method: Blood samples for pharmacokinetic analysis were collected immediately prior to dosing (0 h) and at 0.5, 1, 2, 3, 4, 6, 8, 12, and 24 h post-dose on Day 1 and Day 21 of Cycle 1 for patients in the DEP (QD dosing). For patients who received intermittent dosing regimens, blood was collected immediately prior to dosing (0 h) and at 1, 2, 3, 4, 6, 8, 10, and 24 h post-dose on Cycle 1 Day 1; immediately prior to dosing (0 h) on Cycle 1 Days 3, 4, and 8; and immediately prior to dosing (0 h) and at 1, 2, 3, 4, 6, 8, 10, 24, 48, and 96 h post-dose on Cycle 1 Day 18. Urine samples for pharmacokinetic analysis were collected immediately prior to dosing (single sample collection) and from 0 to 6 h and from 6 to 12 h and 12 to 24 h post-dose on Day 1 of Cycle 1 for both QD and intermittent dosing. Blood samples for pharmacodynamic analysis were collected at pre-dose and 4, 8, and 24 h post-dose on Cycle 1 Day 1, and at pre-dose and 4 h post-dose on Cycle 1 Day 21 (QD dosing) or Cycle 1 Day 18 (intermittent dosing).
Descriptive data were used to summarize safety data and antitumor activity. Pharmacokinetic parameters were derived using non-compartmental analysis and summarized descriptively by dose level, study day, and study phase. […] The accumulation of TAS-117 was assessed by comparing pharmacokinetic parameters on Day 1 and Day 21 (QD) or Day 18 (intermittent dosing). Pharmacodynamic data were presented using summary statistics of the ratio of pPRAS40/total PRAS40 to baseline values (pre-dose) on Day 1 and Day 18 or 21, by dose level and treatment regimen. Pharmacogenomics data were summarized, and the relevance between biomarkers and efficacy was analyzed using Fisher’s Exact test.
P-values < 0.05 were considered significant. Missing data were not imputed, and analyses were performed using all available data. Plasma pharmacokinetic parameters were evaluated using Phoenix® WinNonlin® software (Pharsight Corporation as part of Certara, Princeton, NJ, US, Version 8.1 or 8.3). Statistical analyses were performed using SAS version 9.4 (SAS Institute; Cary, NC, US).

NCI-N87 = conditions: oral dosing; NCI-N87 (HER2 amplification); cited from earlier work
[2] = DEP, Cycle 1 Day 1, 8 mg QD, n = 1
[3] = DEP, Cycle 1 Day 1, 16 mg QD, n = 6
[4] = DEP, Cycle 1 Day 1, 24 mg QD, n = 3
[5] = DEP, Cycle 1 Day 1, 24 mg QD, n = 2
[6] = DEP, Cycle 1 Day 21, 8 mg QD, n = 1
[7] = DEP, Cycle 1 Day 21, 16 mg QD, n = 3
[8] = DEP, Cycle 1 Day 21, 16 mg QD, n = 2
[9] = DEP, Day 21 vs Day 1, 16 mg QD, n = 3
[10] = RMP, Cycle 1 Day 1, 24 mg intermittent dosing (4 days on/3 days off), n = 6
[11] = RMP, Cycle 1 Day 1, 24 mg intermittent dosing (4 days on/3 days off), n = 5
[12] = RMP, Cycle 1 Day 1, 32 mg intermittent dosing (4 days on/3 days off), n = 4
[13] = RMP, Cycle 1 Day 18, 24 mg intermittent dosing (4 days on/3 days off), n = 5
[14] = RMP, Cycle 1 Day 18, 32 mg intermittent dosing (4 days on/3 days off), n = 1
[15] = RMP, Day 18 vs Day 1, 24 mg intermittent dosing, n = 5
[16] = RMP, Day 18 vs Day 1, 32 mg intermittent dosing, n = 1

C[C@]1(O)C[C@@](N)(c2ccc(-c3nc4n(c3-c3ccccc3)COc3ccncc3-4)cc2)C1 [TAS-117]
Dose proportionality of Cmax, AUClast and AUC0–24 ([1]; 8 to 32 mg dose range): dose proportional | AUC0–24 [1, 2]: 164 ng·h/mL | AUClast [1, 2]: 165 ng·h/mL | CLr [1, 2]: 4.11 L/h | Cmax [1, 2]: 8.82 ng/mL | t1/2 [1, 2]: 21.96 h | tmax [1, 2]: 1.93 h | Fe ([1]; DEP, Cycle 1 Day 1, 8 mg QD, n = 1, urinary excretion rate as percentage of dose): 8.45% | AUC0–24, Mean (SD) [1, 3]: 315 (73) ng·hr/mL | AUC0–24, gMean [1, 3]: 308 ng·h/mL | AUClast, Mean (SD) [1, 3]: 316 (73) ng·hr/mL | AUClast, gMean [1, 3]: 308 ng·h/mL | CLr, Mean (SD) [1, 3]: 5.20 (2.19) L/h | CLr, gMean [1, 3]: 4.78 L/h | Cmax, Mean (SD) [1, 3]: 25.1 (7.66) ng/mL | Cmax, gMean [1, 3]: 24.1 ng/mL | Fe, Mean (SD) [1, 3]: 10.43 (4.94) % | Fe, gMean [1, 3]: 9.20% | t1/2, Mean (SD) [1, 3]: 26.98 (6.06) h | t1/2, gMean [1, 3]: 26.40 h | tmax, median (min, max) [1, 3]: 2.98 (1.88, 3.89)^c h | AUC0–24, Mean (SD) [1, 4]: 438 (194) ng·hr/mL | AUC0–24, gMean [1, 4]: 407 ng·h/mL | AUClast, Mean (SD) [1, 4]: 438 (193) ng·hr/mL | AUClast, gMean [1, 4]: 408 ng·h/mL | CLr, Mean (SD) [1, 4]: 6.39 (2.72) L/h | CLr, gMean [1, 4]: 6.04 L/h | Cmax, Mean (SD) [1, 4]: 31.0 (15.7) ng/mL | Cmax, gMean [1, 4]: 28.6 ng/mL | Fe, Mean (SD) [1, 4]: 10.48 (2.73) % | Fe, gMean [1, 4]: 10.25% | tmax, median (min, max) [1, 4]: 3.98 (3.92, 6.00)^c h | t1/2, Mean (SD) [1, 5]: 23.06 (NC)^d h | t1/2, gMean [1, 5]: 22.61^d h | AUClast [1, 6]: 604 ng·h/mL | Cmax [1, 6]: 33.1 ng/mL | tmax [1, 6]: 7.85 h | AUC0–24, Mean (SD) [1, 7]: 865 (216) ng·hr/mL | AUC0–24, gMean [1, 7]: 846 ng·h/mL | AUClast, Mean (SD) [1, 7]: 864 (220) ng·hr/mL | AUClast, gMean [1, 7]: 844 ng·h/mL | Cmax, Mean (SD) [1, 7]: 61.4 (22.2) ng/mL | Cmax, gMean [1, 7]: 58.3 ng/mL | tmax, median (min, max) [1, 7]: 1.93 (1.87, 2.02)^c h | t1/2, Mean (SD) [1, 8]: 41.65 (NC)^d h | t1/2, gMean [1, 8]: 41.23^d h | Observed accumulation ratio of Cmax ([1]; DEP, Day 21 vs Day 1, 8 mg QD, n = 1): 3.75 | Observed accumulation ratio of AUC0–24, Mean (SD) [1, 9]: 2.84 (0.04) | Observed accumulation ratio of AUC0–24, gMean [1, 9]: 2.83 | Observed accumulation ratio of Cmax, Mean (SD) [1, 9]: 2.71 (0.48) | Observed accumulation ratio of Cmax, gMean [1, 9]: 2.69 | AUC0–24, Mean (SD) [1, 10]: 543 (108) ng·hr/mL | AUC0–24, gMean [1, 10]: 534 ng·h/mL | AUClast, Mean (SD) [1, 10]: 542 (107) ng·hr/mL | AUClast, gMean [1, 10]: 533 ng·h/mL | CLr, Mean (SD) [1, 10]: 4.55 (1.43) L/h | CLr, gMean [1, 10]: 4.34 L/h | Cmax, Mean (SD) [1, 10]: 42.1 (11.1) ng/mL | Cmax, gMean [1, 10]: 40.9 ng/mL | Fe, Mean (SD) [1, 10]: 10.02 (2.85) % | Fe, gMean [1, 10]: 9.65% | tmax, median (min, max) [1, 10]: 3.28 (0.95, 4.15)^c h | t1/2, Mean (SD) [1, 11]: 31.92 (10.77)^e h | t1/2, gMean [1, 11]: 30.44^e h | AUC0–24, Mean (SD) [1, 12]: 770 (155) ng·hr/mL | AUC0–24, gMean [1, 12]: 758 ng·h/mL | AUClast, Mean (SD) [1, 12]: 774 (162) ng·hr/mL | AUClast, gMean [1, 12]: 761 ng·h/mL | CLr, Mean (SD) [1, 12]: 4.12 (1.82) L/h | CLr, gMean [1, 12]: 3.80 L/h | Cmax, Mean (SD) [1, 12]: 60 (18.4) ng/mL | Cmax, gMean [1, 12]: 58.0 ng/mL | Fe, Mean (SD) [1, 12]: 9.32 (2.71) % | Fe, gMean [1, 12]: 9.01% | t1/2, Mean (SD) [1, 12]: 24.02 (3.80) h | t1/2, gMean [1, 12]: 23.81 h | tmax, median (min, max) [1, 12]: 2.43 (1.95, 4.03)^c h | AUC0–24, Mean (SD) [1, 13]: 1498 (500) ng·hr/mL | AUC0–24, gMean [1, 13]: 1433 ng·h/mL | AUClast, Mean (SD) [1, 13]: 3542 (1023) ng·hr/mL | AUClast, gMean [1, 13]: 3420 ng·h/mL | Cmax, Mean (SD) [1, 13]: 89.9 (37.4) ng/mL | Cmax, gMean [1, 13]: 83.8 ng/mL | t1/2, Mean (SD) [1, 13]: 49.31 (7.73) h | t1/2, gMean [1, 13]: 48.83 h | tmax, median (min, max) [1, 13]: 2.00 (0.98, 5.92)^c h | AUC0–24 [1, 14]: 2105 ng·h/mL | AUClast [1, 14]: 5558 ng·h/mL | Cmax [1, 14]: 160 ng/mL | t1/2 [1, 14]: 49.63 h | tmax [1, 14]: 1.00 h | Observed accumulation ratio of AUC0–24, Mean (SD) [1, 15]: 2.70 (0.37) | Observed accumulation ratio of AUC0–24, gMean [1, 15]: 2.68 | Observed accumulation ratio of Cmax, Mean (SD) [1, 15]: 2.06 (0.73) | Observed accumulation ratio of Cmax, gMean [1, 15]: 1.95 | Observed accumulation ratio of AUC0–24 [1, 16]: 2.69 | Observed accumulation ratio of Cmax [1, 16]: 2.50 | Steady state reached by ([1]; indicated by t1/2 data): ≤ 8 days | Antitumor activity (NCI-N87): demonstrated single-agent antitumor activity
